# Data taken from patent US8450357B2, “Compositions comprising an aryl pyrazole and/or a formamidine, methods and uses thereof” (Merial Limited, priority 2008, dated 2013).
# Columns and labels:
# [1] = Solubility of amitraz in various solvents; type: physicochemical
# Description: (§1) Solutions of amitraz in certain solvents at high concentration result in the appearance of crystals over time. […] The solubility of amitraz in butyl acetate is lower then in anisole, MIK and ethyl benzoate. […] Additionally, when amitraz (25%) in butyl acetate formulations were stored at 50° C. in a chamber, they evaporated slightly. […] Again, lowering concentration to 20% and addition of co-solvents with higher solubility of amitraz avoided crystallization of amitraz. Unexpectedly, this addition of co-solvents caused the effects described below in Example 9.
# [2] = Crystal formation of amitraz formulations on storage or on the coat; type: physicochemical
# Description: as §1
# [3] = test system: ticks (Rhipicephalus sanguineus); test: Study B: tick efficacy of Compound 1 spot-on formulations in dogs; type: in vivo
# Source text: A separate clinical efficacy study in dogs was designed with an untreated control group and 5 test groups treated with compound 1. Each group had six dogs. Test articles were formulated as topical spot-on solutions containing compound 1, 10-20% w/v in a solvent or a combination of solvents as described above. Dogs were infested with approximately 50 ticks (Rhipicephalus sanguineus) on days −1, 7, 14, 21, 28, 35 and 42. Dogs were also infested with approximately 100 fleas (Ctenocephalides felis) on days −1, 8, 15, 22, 29, 36, and 43. Treatment was applied by parting the hair and applying the formulation directly onto the skin on one spot at the midline of the neck, between the base of the skull and the shoulder blades. […] […] It should be noted that Study A and Study B were conducted at different times and locations, and the results of each clinical study may differ from the other based on various environmental factors. Thus, the results of one clinical study should not be compared with those of another due to these factors.
smiles,measurement,setting,value
"Cc1ccc(/N=C/N(C)/C=N/c2ccc(C)cc2C)c(C)c1 [Amitraz, amitraz]","Solubility of amitraz (at room temperature, %)",[1]; in Acetone,37.87%
same,"Solubility of amitraz (at room temperature, %)",[1]; in Anisole (methoxybenzene),45.54%
same,"Solubility of amitraz (at room temperature, %)",[1]; in Benzyl acetate,21.85%
same,"Solubility of amitraz (at room temperature, %)",[1]; in Benzyl benzoate,33.30%
same,"Solubility of amitraz (at room temperature, %)",[1]; in Butyl acetate,27.10%
same,"Solubility of amitraz (at room temperature, %)",[1]; in Ethyl benzoate,39.43%
same,"Solubility of amitraz (at room temperature, %)",[1]; in Methyl isobutyl ketone,36.72%
same,crystals upon cooling to room temperature,[2]; amitraz (25%) in butyl acetate stored at 50° C. in a chamber,precipitated crystals
same,crystals on the coat of animals,"[2]; amitraz (25%) in butyl acetate, clinical studies",produced white crystals
"Cc1c([S+]([O-])C(F)(Cl)Cl)c(C#N)nn1-c1c(F)cc(C(F)(F)F)cc1Cl (stereo not drawn) [Compound 1, 3-cyano-1-(2-chloro-6-fluoro-4-trifluoromethylphenyl)-4-dichlorofluoromethylsulfinyl-5-methyl-1H-pyrazole]",% Efficacy against ticks,"[3]; Day 1, Trt. Group 2: 0.1 ml/kg (10 mg/kg) in Triacetin",94.8%
same,% Efficacy against ticks,"[3]; Day 1, Trt. Group 3: 0.2 ml/kg (20 mg/kg) in Triacetin",93.9%
same,% Efficacy against ticks,"[3]; Day 1, Trt. Group 4: 10 mg/kg in Diisopropyl adipate",95.6%
same,% Efficacy against ticks,"[3]; Day 1, Trt. Group 5: 10 mg/kg in Diethylene glycol monoethyl ether (transcutol)",87.4%
same,% Efficacy against ticks,"[3]; Day 1, Trt. Group 6: 10 mg/kg in Triacetin/diisopropyl adipate",94.8%
same,% Efficacy against ticks,"[3]; Day 2, Trt. Group 2: 0.1 ml/kg (10 mg/kg) in Triacetin",99.6%
same,% Efficacy against ticks,"[3]; Day 2, Trt. Group 3: 0.2 ml/kg (20 mg/kg) in Triacetin",98.9%
same,% Efficacy against ticks,"[3]; Day 2, Trt. Group 4: 10 mg/kg in Diisopropyl adipate",98.9%
same,% Efficacy against ticks,"[3]; Day 2, Trt. Group 5: 10 mg/kg in Diethylene glycol monoethyl ether (transcutol)",98.5%
same,% Efficacy against ticks,"[3]; Day 2, Trt. Group 6: 10 mg/kg in Triacetin/diisopropyl adipate",99.6%
same,% Efficacy against ticks,"[3]; Day 9, Trt. Group 2: 0.1 ml/kg (10 mg/kg) in Triacetin",100%
same,% Efficacy against ticks,"[3]; Day 9, Trt. Group 3: 0.2 ml/kg (20 mg/kg) in Triacetin",100%
same,% Efficacy against ticks,"[3]; Day 9, Trt. Group 4: 10 mg/kg in Diisopropyl adipate",100%
same,% Efficacy against ticks,"[3]; Day 9, Trt. Group 5: 10 mg/kg in Diethylene glycol monoethyl ether (transcutol)",100%
same,% Efficacy against ticks,"[3]; Day 9, Trt. Group 6: 10 mg/kg in Triacetin/diisopropyl adipate",100%
same,% Efficacy against ticks,"[3]; Day 16, Trt. Group 2: 0.1 ml/kg (10 mg/kg) in Triacetin",100%
same,% Efficacy against ticks,"[3]; Day 16, Trt. Group 3: 0.2 ml/kg (20 mg/kg) in Triacetin",100%
same,% Efficacy against ticks,"[3]; Day 16, Trt. Group 4: 10 mg/kg in Diisopropyl adipate",100%
same,% Efficacy against ticks,"[3]; Day 16, Trt. Group 5: 10 mg/kg in Diethylene glycol monoethyl ether (transcutol)",100%
same,% Efficacy against ticks,"[3]; Day 16, Trt. Group 6: 10 mg/kg in Triacetin/diisopropyl adipate",100%
same,% Efficacy against ticks,"[3]; Day 23, Trt. Group 2: 0.1 ml/kg (10 mg/kg) in Triacetin",100%
same,% Efficacy against ticks,"[3]; Day 23, Trt. Group 3: 0.2 ml/kg (20 mg/kg) in Triacetin",100%
same,% Efficacy against ticks,"[3]; Day 23, Trt. Group 4: 10 mg/kg in Diisopropyl adipate",99.1%
same,% Efficacy against ticks,"[3]; Day 23, Trt. Group 5: 10 mg/kg in Diethylene glycol monoethyl ether (transcutol)",100%
same,% Efficacy against ticks,"[3]; Day 23, Trt. Group 6: 10 mg/kg in Triacetin/diisopropyl adipate",100%
same,% Efficacy against ticks,"[3]; Day 30, Trt. Group 2: 0.1 ml/kg (10 mg/kg) in Triacetin",98.8%
same,% Efficacy against ticks,"[3]; Day 30, Trt. Group 3: 0.2 ml/kg (20 mg/kg) in Triacetin",100%
same,% Efficacy against ticks,"[3]; Day 30, Trt. Group 4: 10 mg/kg in Diisopropyl adipate",99.1%
same,% Efficacy against ticks,"[3]; Day 30, Trt. Group 5: 10 mg/kg in Diethylene glycol monoethyl ether (transcutol)",98.8%
same,% Efficacy against ticks,"[3]; Day 30, Trt. Group 6: 10 mg/kg in Triacetin/diisopropyl adipate",98.8%
same,% Efficacy against ticks,"[3]; Day 44, Trt. Group 2: 0.1 ml/kg (10 mg/kg) in Triacetin",94.5%
same,% Efficacy against ticks,"[3]; Day 44, Trt. Group 3: 0.2 ml/kg (20 mg/kg) in Triacetin",99.4%
same,% Efficacy against ticks,"[3]; Day 44, Trt. Group 4: 10 mg/kg in Diisopropyl adipate",93.4%
same,% Efficacy against ticks,"[3]; Day 44, Trt. Group 5: 10 mg/kg in Diethylene glycol monoethyl ether (transcutol)",98.5%
same,% Efficacy against ticks,"[3]; Day 44, Trt. Group 6: 10 mg/kg in Triacetin/diisopropyl adipate",96.6%
same,% Efficacy against ticks,"[3]; Day 51, Trt. Group 2: 0.1 ml/kg (10 mg/kg) in Triacetin",90.8%
same,% Efficacy against ticks,"[3]; Day 51, Trt. Group 3: 0.2 ml/kg (20 mg/kg) in Triacetin",99.3%
same,% Efficacy against ticks,"[3]; Day 51, Trt. Group 4: 10 mg/kg in Diisopropyl adipate",87.9%
same,% Efficacy against ticks,"[3]; Day 51, Trt. Group 5: 10 mg/kg in Diethylene glycol monoethyl ether (transcutol)",98.9%
same,% Efficacy against ticks,"[3]; Day 51, Trt. Group 6: 10 mg/kg in Triacetin/diisopropyl adipate",91.6%
same,% Efficacy against ticks,"[3]; Day 58, Trt. Group 2: 0.1 ml/kg (10 mg/kg) in Triacetin",74.6%
same,% Efficacy against ticks,"[3]; Day 58, Trt. Group 3: 0.2 ml/kg (20 mg/kg) in Triacetin",97.6%
same,% Efficacy against ticks,"[3]; Day 58, Trt. Group 4: 10 mg/kg in Diisopropyl adipate",89.5%
same,% Efficacy against ticks,"[3]; Day 58, Trt. Group 5: 10 mg/kg in Diethylene glycol monoethyl ether (transcutol)",94.1%
same,% Efficacy against ticks,"[3]; Day 58, Trt. Group 6: 10 mg/kg in Triacetin/diisopropyl adipate",88.1%
